Laboratory results from patent US10774051B2, “6-membered heterocyclic derivatives and pharmaceutical composition comprising the same” (Shionogi & Co., Ltd., priority 2015, dated 2020).

Biological target: human P2X7 receptor (Homo sapiens, UniProt Q99572, R270H/Y155H)
Test: Evaluation of human P2X7 receptor inhibitory activity (Yo-Pro uptake, BzATP stimulation, FLIPR TETRA)
Format: cell-based
Settings: 1321N1 cells stably expressing human P2X7 receptor; BzATP stimulation, Yo-Pro uptake; read-out: IC50 (antagonistic activity for the human P2X7 receptor)
Outline: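 Yo-Pro dye uptake triggered by BzATP was monitored by FLIPR in human P2X7-transfected 1321N1 cells (SNP variant) in HEPES-buffered HBSS, pH 7.4-7.5. Compound was dispensed 8 min post-stimulation, then signal read for 20 min; IC50 derived logistically from inhibition of the fluorescence range.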

Going from COc1cn(Cc2cc(F)cc(F)c2)c(Nc2cc3[nH]ncc3cc2C)nc1=O [Compound I-0597] to COc1cn(Cc2ccccc2)c(Nc2cc3[nH]ccc3cc2C)nc1=O [Compound I-0618], the IC50 falls from 20 nM to 7 nM (2.9-fold).

Compared with COc1cn(Cc2cc(F)c(F)c(F)c2)c(Nc2cccc3sccc23)nc1=O [Compound I-0626], COc1cn(Cc2ccc(F)c(Cl)c2)c(Nc2cccc3occc23)nc1=O [Compound I-0636] is 12-fold higher in IC50: 4 nM for the first, 50 nM for the second. The first is the more potent here.

Same assay, conditions: 1321N1 cells stably expressing human P2X7 receptor; BzATP stimulation, Yo-Pro uptake; read-out: IC50 (antagonistic activity for the human P2X7 receptor), class symbol

COc1cn(Cc2ccc(F)c(Cl)c2)c(Nc2ccc(Cl)cc2C)nc1=O [Compound I-0564] and CCc1ccc(F)cc1Nc1nc(=O)c(OC)cn1Cc1ccc(F)c(Cl)c1 [Compound I-0567] fall in the same range of IC50: 10 to 100 nM for the first, 10 to 100 nM for the second.

First: CCc1ccc(F)cc1Nc1nc(=O)c(OC)cn1Cc1ccc(F)cc1 [Compound I-0565]
Second: CCc1ccc(F)cc1Nc1nc(=O)c(OC)cn1Cc1cccc(Cl)c1 [Compound I-0566]
The IC50 of the first is higher: 100 to 500 nM for the first, 10 to 100 nM for the second. The second is the more potent here.

First: CCc1ccccc1Nc1nc(=O)c(OC)cn1Cc1cc(F)c(F)c(F)c1 [Compound I-0568]
Second: CCc1cc(OC)ccc1Nc1nc(=O)c(OC)cn1Cc1cc(F)c(F)c(F)c1 [Compound I-0573]
The IC50 of the first is higher: 10 to 100 nM for the first, < 10 nM for the second. The second is the more potent here.

COc1cn(Cc2cc(F)c(F)c(F)c2)c(Nc2cccc(C)c2C)nc1=O [Compound I-0569] and COc1cccc(Nc2nc(=O)c(OC)cn2Cc2cc(F)c(F)c(F)c2)c1C [Compound I-0572] cannot be ordered by IC50: < 10 nM for the first, < 10 nM for the second.

COc1cn(Cc2cc(F)c(F)c(F)c2)c(Nc2ccc(C)cc2C)nc1=O [Compound I-0570] and COc1cn(Cc2cc(F)c(F)c(F)c2)c(Nc2cc(C)ccc2C)nc1=O [Compound I-0571] cannot be ordered by IC50: < 10 nM for the first, < 10 nM for the second.

COc1cn(Cc2cc(F)c(F)c(F)c2)c(Nc2cc(C)c(C)cc2C)nc1=O [Compound I-0574] and COc1cn(Cc2cc(F)c(F)c(F)c2)c(Nc2cc(C)c(Cl)cc2C)nc1=O [Compound I-0575] cannot be ordered by IC50: < 10 nM for the first, < 10 nM for the second.

COc1cn(Cc2cc(F)cc(Cl)c2)c(Nc2cccc(OC(F)F)c2C)nc1=O [Compound I-0576] and COc1cn(Cc2cc(F)cc(Cl)c2)c(Nc2cccc(C)c2Cl)nc1=O [Compound I-0577] fall in the same range of IC50: 10 to 100 nM for the first, 10 to 100 nM for the second.

First: COc1cn(Cc2cc(F)cc(Cl)c2)c(Nc2cc(CO)c(C)cc2C)nc1=O [Compound I-0578]
Second: COc1cn(Cc2cc(F)cc(Cl)c2)c(Nc2cc3[nH]ncc3cc2C)nc1=O [Compound I-0580]
The IC50 of the first is lower: < 10 nM for the first, 10 to 100 nM for the second.

First: COc1cn(Cc2cc(F)cc(Cl)c2)c(Nc2cccc3[nH]c(C)cc23)nc1=O [Compound I-0579]
Second: COc1cn(Cc2cc(F)cc(C(F)(F)F)c2)c(Nc2cccc(Cl)c2C)nc1=O [Compound I-0582]
The IC50 of the first is lower: 10 to 100 nM for the first, 100 to 500 nM for the second.

COc1ccc(Nc2nc(=O)c(OC)cn2Cc2cc(F)c(F)c(F)c2)c(C)c1 [Compound I-0581] and COc1cn(Cc2ccccc2)c(Nc2ccc3[nH]ccc3c2C)nc1=O [Compound I-0583] cannot be ordered by IC50: < 10 nM for the first, < 10 nM for the second.

Same assay, conditions: antagonistic activity for the human P2X7 receptor; read-out: IC50

COc1cn(Cc2ccc(F)c(Cl)c2)c(Nc2ccc3[nH]ccc3c2C)nc1=O [Compound I-0584] and COc1cn(Cc2ccc(F)c(Cl)c2)c(Nc2cc3[nH]ccc3cc2C)nc1=O [Compound I-0619] cannot be ordered by IC50: < 10 nM for the first, < 10 nM for the second.

COc1cc(Nc2nc(=O)c(OC)cn2Cc2ccccc2)c(C)cc1C [Compound I-0585] and COc1cc(Nc2nc(=O)c(OC)cn2Cc2ccc(F)c(Cl)c2)c(C)cc1C [Compound I-0586] cannot be ordered by IC50: < 10 nM for the first, < 10 nM for the second.

COc1cn(Cc2ccccc2)c(Nc2cc(-c3cccn(C)c3=O)ccc2C)nc1=O [Compound I-0587] and COc1cn(Cc2ccccc2)c(Nc2cc(-c3cccn(C)c3=O)c(F)cc2C)nc1=O [Compound I-0590] fall in the same range of IC50: 10 to 100 nM for the first, 10 to 100 nM for the second.

First: COc1cn(Cc2ccc(F)c(Cl)c2)c(Nc2cc(-c3cccn(C)c3=O)ccc2C)nc1=O [Compound I-0588]
Second: COc1cn(Cc2ccc(F)c(Cl)c2)c(Nc2cc(-c3cccn(C)c3=O)c(F)cc2C)nc1=O [Compound I-0591]
The IC50 of the first is lower: < 10 nM for the first, 10 to 100 nM for the second.

First: COc1cn(Cc2cc(F)cc(F)c2)c(Nc2cc(-c3cccn(C)c3=O)ccc2C)nc1=O [Compound I-0589]
Second: COc1cn(Cc2cc(F)cc(F)c2)c(Nc2cc(-c3cccn(C)c3=O)c(F)cc2C)nc1=O [Compound I-0592]
The IC50 of the first is lower: < 10 nM for the first, 10 to 100 nM for the second.

COc1cn(Cc2cc(F)cc(F)c2)c(Nc2cc(Cl)ccc2C)nc1=O [Compound I-0593] and COc1ccc(Cl)c(Nc2nc(=O)c(OC)cn2Cc2cc(F)cc(F)c2)c1 [Compound I-0639] fall in the same range of IC50: 10 to 100 nM for the first, 10 to 100 nM for the second.

COc1cn(Cc2ccc(F)c(Cl)c2)c(Nc2cc(Cl)ccc2C)nc1=O [Compound I-0594] and CCc1cc(Br)ccc1Nc1nc(=O)c(OC)cn1Cc1ccc(F)c(Cl)c1 [Compound I-0631] fall in the same range of IC50: 10 to 100 nM for the first, 10 to 100 nM for the second.

First: COc1cn(Cc2ccc(F)c(Cl)c2)c(Nc2ccccc2Cc2ccccn2)nc1=O [Compound I-0595]
Second: COc1cn(Cc2ccc(F)c(C(F)(F)F)c2)c(Nc2cccc(Cl)c2C)nc1=O [Compound I-0635]
The IC50 of the first is lower: < 10 nM for the first, 10 to 100 nM for the second. The first is the more potent here.

COc1cn(Cc2cc(F)c(F)c(F)c2)c(Nc2ccc(OC(F)(F)F)cc2C)nc1=O [Compound I-0596] and COc1cn(Cc2cc(F)cc(F)c2)c(Nc2ccc(OC(F)(F)F)cc2C)nc1=O [Compound I-0629] fall in the same range of IC50: 10 to 100 nM for the first, 10 to 100 nM for the second.

COc1cn(Cc2cc(F)cc(F)c2)c(Nc2cccc3[nH]c(C)cc23)nc1=O [Compound I-0598] and COc1cn(Cc2cc(F)cc(F)c2)c(Nc2cccc3occc23)nc1=O [Compound I-0640] fall in the same range of IC50: 10 to 100 nM for the first, 10 to 100 nM for the second.

First: COc1cn(Cc2cc(F)cc(F)c2)c(Nc2cc(-c3nnco3)ccc2C)nc1=O [Compound I-0599]
Second: COc1cn(Cc2cc(F)cc(F)c2)c(Nc2cc3[nH]ccc3cc2C)nc1=O [Compound I-0620]
The IC50 of the first is higher: 10 to 100 nM for the first, < 10 nM for the second.

COc1cn(Cc2cc(F)cc(F)c2)c(Nc2cc(CO)c(C)cc2C)nc1=O [Compound I-0600] and COc1cc(C)c(Nc2nc(=O)c(OC)cn2Cc2cc(F)cc(F)c2)cc1Cl [Compound I-0617] cannot be ordered by IC50: < 10 nM for the first, < 10 nM for the second.

COc1cc(C)cc(Nc2nc(=O)c(OC)cn2Cc2cc(F)c(F)c(F)c2)c1C [Compound I-0601] and COc1cc(C)c(Nc2nc(=O)c(OC)cn2Cc2cc(F)c(F)c(F)c2)cc1C [Compound I-0632] cannot be ordered by IC50: < 10 nM for the first, < 10 nM for the second.

First: COc1cn(Cc2cc(F)c(F)c(F)c2)c(Nc2cccc3[nH]c(=O)ccc23)nc1=O [Compound I-0602]
Second: COc1cn(Cc2cc(F)c(F)c(F)c2)c(Nc2cccc3c(=O)[nH]ccc23)nc1=O [Compound I-0603]
The IC50 of the first is higher: 100 to 500 nM for the first, 10 to 100 nM for the second.

COc1cn(Cc2ccc(F)c(F)c2)c(Nc2cc(-c3ncco3)ccc2C)nc1=O [Compound I-0604] and COc1cc(C)c(Nc2nc(=O)c(OC)cn2Cc2ccc(F)c(F)c2)cc1Cl [Compound I-0616] cannot be ordered by IC50: < 10 nM for the first, < 10 nM for the second.

First: COc1cn(Cc2ccc(F)c(F)c2)c(Nc2cc(S(C)(=O)=O)c(C)cc2C)nc1=O [Compound I-0605]
Second: COc1cn(Cc2ccc(F)c(F)c2)c(Nc2cccc(SC)c2C)nc1=O [Compound I-0606]
The IC50 of the first is higher: 10 to 100 nM for the first, < 10 nM for the second.

COc1cn(Cc2cc(F)c(F)c(F)c2)c(Nc2cc(C)c(OC(F)F)cc2C)nc1=O [Compound I-0607] and CCOc1cc(C)c(Nc2nc(=O)c(OC)cn2Cc2cc(F)c(F)c(F)c2)cc1C [Compound I-0624] cannot be ordered by IC50: < 10 nM for the first, < 10 nM for the second.

COc1ccc(Nc2nc(=O)c(OC)cn2Cc2cc(F)cc(Cl)c2)c(C)c1 [Compound I-0608] and COc1cn(Cc2cc(F)cc(Cl)c2)c(Nc2ccc(OC(F)F)cc2C)nc1=O [Compound I-0613] fall in the same range of IC50: 10 to 100 nM for the first, 10 to 100 nM for the second.

COc1cn(Cc2cc(F)cc(Cl)c2)c(Nc2ccc(OC(F)(F)F)cc2C)nc1=O [Compound I-0609] and COc1cn(Cc2ccccc2)c(Nc2ccc(OC(F)(F)F)cc2C)nc1=O [Compound I-0628] fall in the same range of IC50: 100 to 500 nM for the first, 100 to 500 nM for the second.

COc1c(C)ccc(Nc2nc(=O)c(OC)cn2Cc2cc(F)cc(Cl)c2)c1C [Compound I-0610] and CCc1cc(Cl)ccc1Nc1nc(=O)c(OC)cn1Cc1cc(F)cc(Cl)c1 [Compound I-0611] fall in the same range of IC50: 10 to 100 nM for the first, 10 to 100 nM for the second.

First: COc1cn(Cc2cc(F)cc(Cl)c2)c(Nc2ccc(N3CCOCC3)cc2C)nc1=O [Compound I-0612]
Second: COc1cc(C)c(Nc2nc(=O)c(OC)cn2Cc2cccc(F)c2)cc1Cl [Compound I-0614]
The IC50 of the first is higher: 100 to 500 nM for the first, < 10 nM for the second.

COc1cc(C)c(Nc2nc(=O)c(OC)cn2Cc2ccc(F)cc2)cc1Cl [Compound I-0615] and COc1cccc(Nc2nc(=O)c(OC)cn2Cc2cc(F)cc(F)c2)c1Cl [Compound I-0638] cannot be ordered by IC50: < 10 nM for the first, < 10 nM for the second.

First: CCc1ccc(Br)cc1Nc1nc(=O)c(OC)cn1Cc1ccccc1 [Compound I-0621]
Second: COc1cn(Cc2ccccc2)c(Nc2ccc(N(C)C)cc2C)nc1=O [Compound I-0622]
The IC50 of the first is lower: < 10 nM for the first, 10 to 100 nM for the second.

COc1cc(C)c(Nc2nc(=O)c(OC)cn2Cc2cc(F)c(F)c(F)c2)cc1OC [Compound I-0623] and COc1ccc(C)c(Nc2nc(=O)c(OC)cn2Cc2cc(F)c(F)c(F)c2)c1 [Compound I-0625] cannot be ordered by IC50: < 10 nM for the first, < 10 nM for the second.

First: COc1ccc(C)c(Nc2nc(=O)c(OC)cn2Cc2cccc(Cl)c2)c1 [Compound I-0627]
Second: CCc1ccc(OC)cc1Nc1nc(=O)c(OC)cn1Cc1cc(F)cc(F)c1 [Compound I-0637]
The IC50 of the first is higher: 10 to 100 nM for the first, < 10 nM for the second.

CCc1cc(Br)ccc1Nc1nc(=O)c(OC)cn1Cc1cc(F)cc(F)c1 [Compound I-0630] and COc1cn(Cc2cc(F)c(F)c(F)c2)c(Nc2cc(OC(C)C)ccc2C)nc1=O [Compound I-0633] cannot be ordered by IC50: < 10 nM for the first, < 10 nM for the second.

First: COc1cn(Cc2ccc(C(F)(F)F)c(F)c2)c(Nc2cccc(Cl)c2C)nc1=O [Compound I-0634]
Second: COc1cn(Cc2cccc(F)c2)c(Nc2cccc(OC(F)F)c2C)nc1=O [Compound I-0641]
The IC50 of the first is higher: 100 to 500 nM for the first, 10 to 100 nM for the second. The second is the more potent here.
